Source: US20090149518A1, “PHARMACEUTICAL FOR PROTECTION OF MOTOR NERVE IN PATIENT WITH AMYOTROPHIC LATERAL SCLEROSIS” (ONO PHARMACEUTICAL CO., LTD., priority 2005, published 2009)

Assays:
Format in all cases: in vivo, human
[1] = test system: patients with amyotrophic lateral sclerosis; assay: Example 2 clinical study: safety measurements; conditions: 1200 mg once a day oral for 18 months plus standard riluzole
Protocol: (§1) As a clinical study, double blind placebo-controlled parallel group study was carried out on patients with amyotrophic lateral sclerosis, under the following conditions.
(§2) (1) Active group: (2R)-2-propyloctanoic acid 1200 mg (four soft capsules comprising 300 mg of (2R)-2-propyloctanoic acid per capsule);
(§3) Both Active and Placebo group are administered for 18 months.
(§4) Riluzole was administered to all subjects in Active and Placebo group in the manner of standard therapy (riluzole 50 mg tablet: one tablet twice a day (before breakfast and dinner), oral daily dose of 100 mg).
Evaluation method: Blood pressure and pulse of the subject were recorded at the following evaluation times.
Evaluation method: 12 lead ECG was conducted at the following evaluation times. Sinus rhythm, RR interval, PR interval, QRS duration, QT/QTc, and so forth were assessed.
Evaluation method: Weight of the subject was measured at the following evaluation times.
Evaluation method: Clinical laboratory test (haematology, biochemistry and urinalysis) of the subject was conducted at the following evaluation times.
(§5) Evaluation method: Incidence and content (e.g., symptom, causal association, etc.) of clinical adverse events were monitored for each subject.

ALS patients = assay: Studies of the inventors: (2R)-2-propyloctanoic acid used alone in ALS patients; conditions: without riluzole
[2] = test system: patients with amyotrophic lateral sclerosis; assay: Example 2 clinical study: efficacy measurements; conditions: 1200 mg once a day oral for 18 months plus standard riluzole; patients less than 14 months from onset of muscular weakness
Protocol: as §1
(3) Less than 14 months from onset of muscular weakness;
as §2, §3, §4
(§6) Evaluation method: Slow vital capacity (SVC) of the subject was measured at the following evaluation times. SVC was measured three times in the sitting position, allowing sufficient recovery time between each manoeuvre. The highest SVC value was recorded.
Evaluation method: Functional status of the subject was assessed at the following evaluation times using revised amyotrophic lateral sclerosis functional rating scale (ALSFRS-R) shown in above-mentioned Table 1 to 13.
Evaluation method; Muscle strength of the subject was assessed at the following evaluation times using medical research council scale shown in before-mentioned Table 14. […]
Evaluation method: Death, bronchotomy, and using noninvasive ventilator were recorded for each subject, if and when it occurs. […]

[3] = test system: patients with amyotrophic lateral sclerosis; assay: Example 1 clinical study: clinical adverse events; conditions: Active group, 1200 mg once a day oral for 12 months plus standard riluzole
Protocol: as §1, §2
(§7) Both Active and Placebo groups are administered for 12 months.
(§8) Riluzole was administered to all subjects in Active and Placebo groups in the manner of standard therapy (riluzole 50 mg tablet: one tablet twice a day (before breakfast and dinner), oral daily dose of 100 mg).
as §5
Evaluation time: Throughout the study.

[4] = test system: patients with amyotrophic lateral sclerosis; assay: Example 1 clinical study: respiratory function (slow vital capacity); conditions: Active group
Protocol: as §1, §2, §7, §8, §6
Evaluation time: 1, 2, 4, 6, 8, 10 and 12 month(s) from the start of administration.
Suppression of respiratory disability and improvement in survival rate are shown by oral administration of (2R)-2-propyloctanoic acid in the patient within about 14 months after the onset of muscular weakness (Active group: 55 patients, Placebo group: 54 patients. Both Active and Placebo groups are treated with standard riluzole therapy). Hereinafter, each result is described in detail, […]

[5] = test system: patients with amyotrophic lateral sclerosis; assay: Example 1 clinical study: survival; conditions: Active group, 1200 mg once a day oral for 12 months plus standard riluzole; patients within about 14 months after onset of muscular weakness
Protocol: As a clinical study, double blind placebo-controlled parallel group study was carried out on patients with amyotrophic lateral sclerosis, under the following conditions. […] (1) Active group: (2R)-2-propyloctanoic acid 1200 mg (four soft capsules comprising 300 mg of (2R)-2-propyloctanoic acid per capsule); Both Active and Placebo groups are administered for 12 months. Riluzole was administered to all subjects in Active and Placebo groups in the manner of standard therapy (riluzole 50 mg tablet: one tablet twice a day (before breakfast and dinner), oral daily dose of 100 mg). Evaluation method: Death was recorded for each subject, if and when it occurs. Evaluation time. Throughout the study. Suppression of respiratory disability and improvement in survival rate are shown by oral administration of (2R)-2-propyloctanoic acid in the patient within about 14 months after the onset of muscular weakness (Active group: 55 patients, Placebo group: 54 patients. Both Active and Placebo groups are treated with standard riluzole therapy). Hereinafter, each result is described in detail, […]

SMILES: CCCCCC[C@@H](CCC)C(=O)O [(2R)-2-propyloctanoic acid]
- safety in ALS patient [1]: safe
- effect on ALS patients when used alone (ALS patients): cannot exert any satisfactory effect
- effectiveness on suppressing muscular weakness, suppressing respiratory disability, extending survival period, improvement in quality-of-life measures [2]: shows its effectiveness on at least one of
- frequency of adverse event [3]: 89%
- frequency of serious adverse event [3]: 49%
- reduction of slow vital capacity (% of the predicted value) at 12 months from the start of administration compared to before-administration ([4]; 1200 mg once a day oral for 12 months plus standard riluzole 100 mg/day, patients within about 14 months after onset of muscular weakness (55 patients)): 38.27%
- patients whose slow vital capacity was lowered to 50% or less of predicted in 12 months ([4]; 1200 mg once a day oral plus standard riluzole, patients within about 14 months after onset of muscular weakness, result of estimation): about 35 % of patients
- mortality in the dosing period [5]: 9 of 55
- survival rate [5]: 84%
